Measured values as given in the supplement of paper PMC11451515.

System: NOMO1
Assay: cell viability relative to DMSO control; higher = less cytotoxic
Details: 48 h
How it was run: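 NOMO1, SEM and P12-Ichikawa leukemia cells spent at least four passages adapting to each medium before use. They were seeded at 500 cells/well (NOMO1, SEM) or 1000 cells/well (P12-Ichikawa) in 5 μl in 1536-well plates and pin-dosed with library compounds in DMSO at 11 threefold steps from 47 μM down to 0.79 nM. After 48 h at 37°C, CellTiter-Glo One luminescence was read. Viability is reported as a percentage of the DMSO wells on each plate, with cell-free wells as background.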

[1] = HPLM + 10% dialyzed FBS, 0.000781 µM
[2] = HPLM + 10% dialyzed FBS, 0.00234 µM
[3] = HPLM + 10% dialyzed FBS, 0.00702 µM
[4] = HPLM + 10% dialyzed FBS, 0.0211 µM
[5] = HPLM + 10% dialyzed FBS, 0.0632 µM
[6] = HPLM + 10% dialyzed FBS, 0.19 µM
[7] = HPLM + 10% dialyzed FBS, 0.569 µM
[8] = HPLM + 10% dialyzed FBS, 1.71 µM
[9] = HPLM + 10% dialyzed FBS, 5.12 µM
[10] = HPLM + 10% dialyzed FBS, 15.4 µM
[11] = HPLM + 10% dialyzed FBS, 46.1 µM
[12] = RPMI 5 mM glucose + 10% FBS, 0.000781 µM
[13] = RPMI 5 mM glucose + 10% FBS, 0.00234 µM
[14] = RPMI 5 mM glucose + 10% FBS, 0.00702 µM
[15] = RPMI 5 mM glucose + 10% FBS, 0.0211 µM
[16] = RPMI 5 mM glucose + 10% FBS, 0.0632 µM
[17] = RPMI 5 mM glucose + 10% FBS, 0.19 µM
[18] = RPMI 5 mM glucose + 10% FBS, 0.569 µM
[19] = RPMI 5 mM glucose + 10% FBS, 1.71 µM
[20] = RPMI 5 mM glucose + 10% FBS, 5.12 µM
[21] = RPMI 5 mM glucose + 10% FBS, 15.4 µM
[22] = RPMI 5 mM glucose + 10% FBS, 46.1 µM
[23] = RPMI 5 mM glucose + 10% dialyzed FBS, 0.000781 µM
[24] = RPMI 5 mM glucose + 10% dialyzed FBS, 0.00234 µM
[25] = RPMI 5 mM glucose + 10% dialyzed FBS, 0.00702 µM
[26] = RPMI 5 mM glucose + 10% dialyzed FBS, 0.0211 µM
[27] = RPMI 5 mM glucose + 10% dialyzed FBS, 0.0632 µM
[28] = RPMI 5 mM glucose + 10% dialyzed FBS, 0.19 µM
[29] = RPMI 5 mM glucose + 10% dialyzed FBS, 0.569 µM
[30] = RPMI 5 mM glucose + 10% dialyzed FBS, 1.71 µM
[31] = RPMI 5 mM glucose + 10% dialyzed FBS, 5.12 µM
[32] = RPMI 5 mM glucose + 10% dialyzed FBS, 15.4 µM
[33] = RPMI 5 mM glucose + 10% dialyzed FBS, 46.1 µM

SMILES | cell viability [1] | cell viability [2] | cell viability [3] | cell viability [4] | cell viability [5] | cell viability [6] | cell viability [7] | cell viability [8] | cell viability [9] | cell viability [10] | cell viability [11] | cell viability [12] | cell viability [13] | cell viability [14] | cell viability [15] | cell viability [16] | cell viability [17] | cell viability [18] | cell viability [19] | cell viability [20] | cell viability [21] | cell viability [22] | cell viability [23] | cell viability [24] | cell viability [25] | cell viability [26] | cell viability [27] | cell viability [28] | cell viability [29] | cell viability [30] | cell viability [31] | cell viability [32] | cell viability [33]
O=C\1N(N\C=C1[N]2C=CN=N2)C3=NC=NC(=C3)N4CCOCC4 | 81.9% | 84.5% | 82% | 83.9% | 25.7% | 25.8% | 26.3% | 23.8% | 28.3% | 28.4% | 26.6% | 71.2% | 83.9% | 82.7% | 87.8% | 71% | 16.8% | 12.8% | 14.9% | 15.6% | 14.2% | 16.5% | 70.9% | 79.4% | 81.5% | 88.9% | 72.9% | 29.9% | 14.4% | 19.6% | 18.6% | 19.4% | 18.8%
NC(=O)C1CCCc2c1[nH]c1ccc(Cl)cc21 (configuration not stated) | 111% | 129% | 121% | 117% | 123% | 117% | 105% | 87.6% | 57.4% | 24.2% | 7.26% | 117% | 121% | 123% | 105% | 105% | 123% | 115% | 109% | 81.4% | 21.4% | 9.96% | 107% | 121% | 111% | 129% | 119% | 116% | 110% | 116% | 85.5% | 24.3% | 12%
Cc1cnc(C(=O)O)c[n+]1[O-] | – | – | – | – | – | – | – | – | – | – | – | 109% | 122% | 110% | 127% | 129% | 115% | 101% | 118% | 105% | 103% | 112% | – | – | – | – | – | – | – | – | – | – | –
C=CCc1cccc(/C=N/NC(=O)CN2CCN(Cc3ccccc3)CC2)c1O | – | – | – | – | – | – | – | – | – | – | – | 120% | 115% | 108% | 119% | 116% | 109% | 114% | 100% | 115% | 96.5% | 8.9% | – | – | – | – | – | – | – | – | – | – | –
Nc1cccc2c1CN([C@H]1CCC(=O)NC1=O)C2=O | – | – | – | – | – | – | – | – | – | – | – | 125% | 118% | 124% | 123% | 112% | 114% | 98.3% | 105% | 99.7% | 82.1% | 112% | 101% | 111% | 120% | 104% | 114% | 108% | 107% | 109% | 103% | 88.4% | 107%
CCC\C1=C\C(=O)NC(=S)N1 | 81.7% | 104% | 112% | 131% | 113% | 126% | 121% | 133% | 72.3% | 35% | 25.8% | 101% | 113% | 123% | 123% | 114% | 109% | 116% | 119% | 111% | 29.4% | 20.9% | 103% | 122% | 115% | 118% | 109% | 109% | 113% | 123% | 99.7% | 100% | 31.7%
CO/C1=C/C(C)=C\[C@@H](C)[C@@H](O)[C@@H](C)C/C(C)=C\C=C/[C@H](OC)[C@@H]([C@@H](C)[C@@H](O)[C@H](C)[C@@]2(O)C[C@@H](O)[C@H](C)[C@@H](C(C)C)O2)OC1=O | 79.5% | 97.1% | 91.8% | 90.6% | 58.8% | 12.1% | 12.7% | 11.1% | 12.6% | 10.5% | 9.72% | 105% | 95.9% | 107% | 82.3% | 88.7% | 12.5% | 9.12% | 7.87% | 9.62% | 8.77% | 7.13% | 99.8% | 103% | 104% | 83% | 73.7% | 8.37% | 8.28% | 8.09% | 7.93% | 6.37% | 6.62%
Nc1ncnc2ccccc12 | 77.8% | 100% | 100% | 35.2% | 97.8% | 87% | 88.3% | 101% | 88.4% | 105% | 105% | 84.2% | 85.9% | 87.6% | 18.6% | 97.6% | 91.4% | 101% | 95.4% | 88.3% | 90.9% | 81.7% | 88.1% | 84.1% | 79.2% | 44.1% | 81.6% | 86.7% | 89% | 89.9% | 90.6% | 98.4% | 96%
O=C(Oc1ccc([N+](=O)[O-])cc1)N1CCC(C(O)(c2ccc3c(c2)OCO3)c2ccc3c(c2)OCO3)CC1 | 102% | 95.5% | 93% | 119% | 107% | 92.3% | 107% | 88.5% | 85.3% | 89.8% | 58.4% | 87.7% | 87.7% | 83% | 91.8% | 96.6% | 90.1% | 86.2% | 86.3% | 88.3% | 88.4% | 89.2% | 73.1% | 73.3% | 86% | 80.4% | 90.3% | 77.9% | 84.2% | 71% | 65.6% | 74.6% | 74.5%
